Columns and labels:
[1] = 20° C.; cited from earlier work
[2] = insulin from bovine pancreas (Sigma-Aldrich); cited from earlier work
diabetic rats [3] = test: Hypoglycemic effect in diabetic rats (Example no. 10); type: in vivo, Wistar male rats
Experimental: In the in vivo study, rats were injected with streptozotocin (STZ 75 mg/kg intraperitoneal) in 0.01M citrate buffer (pH 4.3) to induce diabetes. The blood from the rat's tail was analyzed with a commercially available glucometer for blood glucose. The blood glucose level on Wistar male rats at no fasting (n=5) was measured at 107.2±8.1 mg/dL for normal rats while the blood glucose level was at 469.7±34.2 mg/dL for diabetic rats. In the animal study, diabetic rats were fasting for 12 hours and subjected to four different conditions: (a) oral deionized water (DI) administration; (b) oral insulin administration at 30 U/kg; (c) oral insulin-loaded nanoparticles administration at 30 U/kg; and (d) subcutaneous (SC) insulin injection at 5 U/kg as positive control. The blood glucose concentration from rat's tail was measured over the time in the study.
It is illustrative that substantially all insulin from the oral administration route has been decomposed in rat stomach. As anticipated, the glucose decrease for the SC insulin injection route appears in rat blood in the very early time interval and starts to taper off after 3 hours in this exemplary study.
The most important observation of the study comes from the oral administration route with insulin-loaded nanoparticles. […]

diabetic rats [4] = test: Freeze-dried nanoparticles in enteric-coated capsule in diabetic rats (Example no. 19); type: in vivo; details: SC injection 5 U/kg
Experimental: In the in vivo study, rats as prepared and conditioned according to Example no. 10 were used in this evaluation. […] The blood glucose concentration from rat's tail was measured over time.
As anticipated, the glucose decrease for the SC insulin injection method is evident in rat blood at a very early time interval starts to taper off after 2 hours, and ends at about 6 hours in this exemplary study. The most important observation of the study comes from the oral administration route with insulin-loaded lyophilized (namely, freeze-dried) nanoparticles. Nanoparticles of this example have an insulin LC at 4.4%, whereas nanoparticles from Example no. […] With the same amount of nanoparticles in both examples, the insulin-feeding ratio of Example no. 19 to Example no. 10 is about 1:3. In other words, the insulin fed to a rat in this study from nanoparticles is about ⅓ of the insulin from nanoparticles fed to rats in Example no. 10.
The blood glucose begins to decrease from the base line at about 3 hours after administration and sustains a lower glucose level for more than 10 hours into study. It implies that the current insulin-loaded nanoparticles may modulate the glucose level in animals in a sustained or prolonged effective mode. […]

[5] = tested on: brush border membrane bounded enzymes; test: Enzyme inhibition study: enzymatic degradation of insulin versus time; type: biochemical; details: 5 mg/ml; insulin 1 mg/ml; up to 2 hours
Text: Brush border membrane bounded enzymes were used to simulate a contacting membrane at the bottom of a donor compartment, wherein the insulin-loaded medium (Krebs-Ringer buffer) in the donor compartment was used as the starting material at time zero. Three elements were used in this enzyme inhibition study to assess the enzymatic degradation of insulin versus time by brush border membrane bounded enzymes.

[6] = cited from earlier work
[7] = in vivo; cited from earlier work

## OC[C@H]1O[C@H](O[C@H]2O[C@H](CO)[C@@H](O)[C@H](O)[C@H]2O)[C@H](O)[C@@H](O)[C@@H]1O [Trehalose, α-D-glucopyranosyl-(1→1)-α-D-glucopyranoside]
[1]
  solubility: 68.9 g/100 g H2O

## insulin: model insulin from bovine pancreas (Sigma-Aldrich), given orally or by SC injection as controls
[2]
  activity: ≥ 27 USP units/mg
Diabetic rats [3]; SC injection 5 U/kg
  time after which glucose decrease starts to taper off: 3 h
Diabetic rats [3]; oral 30 U/kg, over 8 hours, n=5
  glucose change as a percentage of base lines: relatively constant
Diabetic rats [4]
  time after which glucose decrease starts to taper off: 2 h
  time at which glucose decrease ends: about 6 hours

## O=C(O)CN(CCN(CC(=O)O)CC(=O)O)CCN(CC(=O)O)CC(=O)O [DTPA, Diethylene triamine pentaacetic acid]
[5]
  protection of insulin activity or viable content against enzymatic degradation: substantially protect or maintain the insulin activity or viable content

## Drotrecogin alfa (activated)
[6]; i.v. dosage guidelines
  time to peak plasma levels: two
[6]; i.v. infusion
  time to complete clearance from plasma after termination of infusion: two

## 21^A-Gly-30^Ba-L-Arg-30^Bb-L-Arg-human insulin [Insulin glargine]
[7]
  duration of activity: up to 24 hours
